The source of these data is patent US20170313669A1, “LACTONE COMPOUNDS AND METHODS OF MAKING AND USING SAME” (THE SCRIPPS RESEARCH INSTITUTE, priority 2015, published 2017).

One assay concerns COLO205 cells. As to the kind of experiment: PS lipase activity of membrane fraction after in situ treatment. As to conditions: 1 μM, 4 h.
In assay [1] the test system is mouse peritoneal macrophages. As to the kind of experiment: Lyso-PS content of thioglycollate-elicited peritoneal macrophages. In kind it is cell-based. The note with it: pre-treatment 1 μM, 4 h; LPS 5 μg/mL, 7 h. As for the experimental part:
ABHD16A^+/+, ABHD16A^+/+, and ABHD16A^−/− littermates of 10 weeks age were anaesthetized by isoflurane and killed by decapitation. The tissues (brains were sliced laterally into two hemispheres; entire spinal cord) were harvested, weighed, and immediately submerged in liquid N2. Tissues (one half brain or entire spinal cord) were then Dounce-homogenized in 8 mL of 2:1:1 (vol/vol/vol) CHCl3: MeOH: PBS containing the internal standard mix (1 nmol 17:1 FFA, and 100 pmol each of 17:1 lyso-PS, 17:0-20:4 PS, 17:1 lyso-PC, 17:0-20:4 PC, 17:0-20:4 PE and 50 pmol of 2-AG-d5). Homogenates were transferred to a glass vial and centrifuged at 2800×g for 10 minutes to separate the two phases. The organic phase (bottom) was removed, 200 μL of formic acid was added to acidify the aqueous homogenate (to enhance extraction of phospholipids), and CHCl3 was added to make up 8 mL volume. […]
All the metabolites analyzed in this study were quantified using the multiple reaction monitoring (MRM) methods the targeted LC/MS analysis was done using an Agilent Technologies 6460 Triple Quad LC/M with an Agilent Technologies 1290 Infinity series quaternary pump. All data was collected using the LC/MS Data Acquisition mode of the Mass Hunter Workstation Software version B.05.00 build 5.0.5027.0 SP, and analyzed using the Quantitative Analysis mode of the same software. […]

The test system of assay [2] is additional off-targets (serine hydrolases). As to the kind of experiment: ABPP-SILAC, COLO205 cells treated in situ. The note with it: 1 μM, 4 h. The class given is cell-based, human.
Assay [3] concerns mouse peritoneal macrophages. As to the kind of experiment: LPS-induced cytokine release from peritoneal macrophages. In kind it is cell-based. As to conditions: pre-treatment 1 μM, 4 h; LPS 5 μg/mL, 7 h. As for the experimental part:
All PS-lipase substrate assays were performed on either 18:0-18:2 PS (Avanti Catalog #840063) or 16:0-18:1 PS (Avanti Catalog #840034). 17:1 FFA (Sigma-Aldrich #H8896) was used an internal standard for substrate assays, as well as lipidomic analysis. 2-AG-d5 (Catalog #362162) and PGE2-d9 (Catalog #10581) were purchased from Cayman Chemicals. COLO205, MCF7, K562 and HEK293T cells were purchased from ATCC. All full-length cDNA constructs coding for serine hydrolases ABHD16A, and ABHD12 were purchased from Open Biosystems (GE Healthcare), and all primers were obtained from Integrated DNA Technologies. All DNA sequencing was performed by Eton Biosciences Inc. All cytokine analysis was done using single analyte ELISA kits purchased from R&D Systems, Mouse TNF-α (Catalog # DY410), Mouse IL-6 (Catalog # DY406), and Mouse IL-1β (Catalog # DY401). All tissue culture media and supplements (RPMI 1640, DMEM, and Trypsin) were purchased from Caisson Labs, and SILAC RPMI was purchased from Thermo Scientific. […]
Peritoneal macrophages were elicited and harvested from mice according to the standard protocols available from LIPID MAPS (See http://www.lipidmaps.org/protocols/PP0000001400.pdf and http://www.lipidmaps.org/protocols/PP0000001500.pdf). […] Cell counts measured using a Bio-Rad TC10 automated cell counter, and equal numbers of cells (2×10^6) were plated in 10 cm tissue culture dishes. […]

Structures are written as SMILES.

With `CCCCCCCCCCCCCC1OC(=O)/C1=C\CCCCC(N)=O` (stereo not shown) [KC01, (Z)-6-(2-oxo-4-tridecyloxetan-3-ylidene)hexanamide], the “decrease of PS-lipase activity vs DMSO” value in the assay on COLO205 cells was greater than 90%. The “basal and LPS-induced cellular and secreted lyso-PSs” value in assay [1] is given as “reduced”. The inhibition in assay [2] is on record as 50-80%. In addition, the LPS-induced cytokine release entry in assay [3] is on record as “significantly blunted”.
